Source: the supplement of paper PMC5908809

Assays:
[1] = tested on: normal NK cells expanded with K562-aAPC; test: drug sensitivity score (DSS) (DSS units); higher = more sensitive; extreme values may be limits of the assay; conditions: 72 h; IL-2 2.5 ng/mL
Procedure: (§1)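 Drug sensitivity and resistance testing on K562-aAPC-expanded normal NK cells: 5 concentrations (10-fold steps over a 10,000-fold range), 72 h at 37 °C, viability by CellTiter-Glo normalised to DMSO and benzethonium chloride controls; DSS from the fitted curve.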

[2] = tested on: normal primary NK cells, pool 1 (3 donors) (IL-2 2.5 ng/mL); test: as above; conditions: 72 h
NK-YS (IL-2 2.5 ng/mL) [3] = test: as above; conditions: 72 h
IMC-1 (IL-2 20 ng/mL) [4] = test: as above; conditions: 72 h
SNK-6 (IL-2 2.5 ng/mL) [5] = test: as above; conditions: 72 h
KHYG-1 (IL-2 2.5 ng/mL) [6] = test: as above; conditions: 72 h
[7] = tested on: normal primary NK cells, pool 2 (3 donors) (IL-2 2.5 ng/mL); test: as above; conditions: 72 h
NK-92 (IL-2 2.5 ng/mL) [8] = test: as above; conditions: 72 h
KAI3 (IL-2 2.5 ng/mL) [9] = test: as above; conditions: 72 h
[10] = tested on: normal primary NK cells, pool 3 (3 donors) (IL-2 2.5 ng/mL); test: as above; conditions: 72 h
[11] = tested on: normal primary NK cells, pool 1 (3 donors), resting (IL-2 0 ng/mL); test: as above; conditions: 72 h
NKL (IL-2 2.5 ng/mL) [12] = test: as above; conditions: 72 h
DERL-7 (IL-2 2.5 ng/mL) [13] = test: as above; conditions: 72 h
YT (IL-2 2.5 ng/mL) [14] = test: as above; conditions: 72 h
[15] = tested on: normal NK cells expanded with K562-aAPC; test: percent inhibition of viability; higher = more inhibition; conditions: 72 h, IL-2 2.5 ng/mL
Procedure: as §1

[16] = tested on: normal primary NK cells, pool 1 (3 donors) (IL-2 2.5 ng/mL); test: as above; conditions: 72 h
NK-YS (IL-2 2.5 ng/mL) [17] = test: as above; conditions: 72 h
IMC-1 (IL-2 20 ng/mL) [18] = test: as above; conditions: 72 h
SNK-6 (IL-2 2.5 ng/mL) [19] = test: as above; conditions: 72 h
KHYG-1 (IL-2 2.5 ng/mL) [20] = test: as above; conditions: 72 h
[21] = tested on: normal primary NK cells, pool 2 (3 donors) (IL-2 2.5 ng/mL); test: as above; conditions: 72 h
NK-92 (IL-2 2.5 ng/mL) [22] = test: as above; conditions: 72 h
KAI3 (IL-2 2.5 ng/mL) [23] = test: as above; conditions: 72 h
[24] = tested on: normal primary NK cells, pool 3 (3 donors) (IL-2 2.5 ng/mL); test: as above; conditions: 72 h
[25] = tested on: normal primary NK cells, pool 1 (3 donors), resting (IL-2 0 ng/mL); test: as above; conditions: 72 h
NKL (IL-2 2.5 ng/mL) [26] = test: as above; conditions: 72 h
DERL-7 (IL-2 2.5 ng/mL) [27] = test: as above; conditions: 72 h
YT (IL-2 2.5 ng/mL) [28] = test: as above; conditions: 72 h

CO[C@H]1C[C@@H]2CC[C@@H](C)[C@@](O)(O2)C(=O)C(=O)N2CCCC[C@H]2C(=O)O[C@H]([C@H](C)C[C@@H]2CC[C@@H](OC(=O)C(C)(CO)CO)[C@H](OC)C2)CC(=O)[C@H](C)/C=C(\C)[C@@H](O)[C@@H](OC)C(=O)[C@H](C)C[C@H](C)/C=C/C=C/C=C/1C [Temsirolimus] (max concentration tested 100 nM)
Conditions	drug sensitivity score
DERL-7 (IL-2 2.5 ng/mL) [13]	15.1
IMC-1 (IL-2 20 ng/mL) [4]	0
KAI3 (IL-2 2.5 ng/mL) [9]	14.2
KHYG-1 (IL-2 2.5 ng/mL) [6]	13.4
NK-92 (IL-2 2.5 ng/mL) [8]	7.04
NK-YS (IL-2 2.5 ng/mL) [3]	17.4
NKL (IL-2 2.5 ng/mL) [12]	21.6
SNK-6 (IL-2 2.5 ng/mL) [5]	17.2
YT (IL-2 2.5 ng/mL) [14]	14.4
[1]	1.25
[2]	0.28
[7]	3.24
[10]	0.84
[11]	0.07

percent inhibition of viability [%]
Conditions	0.01 nM	0.1 nM	1 nM	10 nM	100 nM
DERL-7 (IL-2 2.5 ng/mL) [27]	0.65	5.41	38.2	53.8	56.5
IMC-1 (IL-2 20 ng/mL) [18]	1.04	2.24	-25.1	-30.5	-23.9
KAI3 (IL-2 2.5 ng/mL) [23]	-1.9	13.1	35.1	48.4	54.7
KHYG-1 (IL-2 2.5 ng/mL) [20]	-0.71	3.41	21.7	58.9	48.8
NK-92 (IL-2 2.5 ng/mL) [22]	-7.3	7.2	12.8	33.5	36.9
NK-YS (IL-2 2.5 ng/mL) [17]	-1.82	16.2	44.5	54.4	59
NKL (IL-2 2.5 ng/mL) [26]	5.4	32.6	52	59.1	58.7
SNK-6 (IL-2 2.5 ng/mL) [19]	4.31	14	45.6	56	55.2
YT (IL-2 2.5 ng/mL) [28]	0.8	5.67	35.9	50.6	55.3
[15]	0.06	1.82	7.35	7.61	23.3
[16]	-5.13	4.99	6.83	10.7	11.2
[21]	-13.6	-11.5	7.96	18.8	14.9
[24]	-9.23	-18.3	1.68	12.1	12.8
[25]	-13.5	-0.02	6.4	10.2	4.95

Cn1cc(C2=Nc3cc(NC(=O)C(N)C4CCCCC4)cc4c3C2=CNNC4=O)cn1 (stereo not drawn) (max concentration tested 10000 nM)
Conditions	drug sensitivity score
DERL-7 (IL-2 2.5 ng/mL) [13]	11.1
IMC-1 (IL-2 20 ng/mL) [4]	19.1
KAI3 (IL-2 2.5 ng/mL) [9]	19.7
KHYG-1 (IL-2 2.5 ng/mL) [6]	22.6
NK-92 (IL-2 2.5 ng/mL) [8]	14.7
NK-YS (IL-2 2.5 ng/mL) [3]	15.2
NKL (IL-2 2.5 ng/mL) [12]	11.7
SNK-6 (IL-2 2.5 ng/mL) [5]	18
YT (IL-2 2.5 ng/mL) [14]	15
[1]	11.4
[2]	2.92
[7]	6.1
[10]	6.18
[11]	0

percent inhibition of viability [%]
Conditions	1 nM	10 nM	100 nM	1000 nM	10000 nM
DERL-7 (IL-2 2.5 ng/mL) [27]	-5.54	-1.5	4.6	48.3	97.6
IMC-1 (IL-2 20 ng/mL) [18]	-2.84	-1.7	7.25	99.8	101
KAI3 (IL-2 2.5 ng/mL) [23]	-1.93	-2.44	21.2	93	103
KHYG-1 (IL-2 2.5 ng/mL) [20]	18.4	5.75	32.3	104	107
NK-92 (IL-2 2.5 ng/mL) [22]	3.17	-3.7	17.4	65.2	107
NK-YS (IL-2 2.5 ng/mL) [17]	-0.41	0.42	9.21	75.4	97.2
NKL (IL-2 2.5 ng/mL) [26]	-1.81	2.84	-0.69	61.7	82.7
SNK-6 (IL-2 2.5 ng/mL) [19]	5.64	12.4	25.4	80.5	97.2
YT (IL-2 2.5 ng/mL) [28]	1.41	1.74	10.1	72.6	104
[15]	-1.76	0.06	11.6	53.4	73.3
[16]	-1.65	-6.59	-10.1	-4.12	59.9
[21]	-14.2	-7.44	-6.63	8.32	85.8
[24]	-13	-2.42	9.48	11.7	76.2
[25]	1.23	-6.26	-15.6	-23.2	9.49
